Holding throughout (assay): NCI tumour cell line growth inhibition, 48 h
Assay [1] relates to A498.
For assay [2], the system named is ACHN.
For assay [3], the system named is BT-549.
Assay [4] relates to CAKI-1.
Assay [5] concerns EKVX.
Assay [6] has as its system HCC 2998.
Assay [7] concerns HCT-15.
In assay [8] the test system is HL-60.
Assay [9] relates to HT-29.
Assay [10] deals with K562.
The subject of assay [11] is MDA-N.
For assay [12], the system named is NCI-H226.
Assay [13] relates to NCI/ADR-RES.
Assay [14] concerns SF-295.
Assay [15] concerns SK-MEL-28.
Assay [16] relates to SK-OV-3.
The subject of assay [17] is SW-620.
The test system of assay [18] is UACC-257.
For assay [19], the system named is NCI-H522.

Structures are written as SMILES.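 In this assay, cells in 96-well plates receive the compound at five concentrations for 48 hours. Endpoints are linearly interpolated between the surrounding concentrations. GI50 marks 50% less growth.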 Active and inactive are the calls of the source. Cut-off read from the data, not from the text of the source: active = GI50 up to about 1.1 µM and inactive = higher.

For `O=C(NC(CO)Cc1ccc(Oc2cc(CC(CO)NC(=O)OCc3ccccc3)ccc2OC(=O)OCc2ccccc2)cc1)OCc1ccccc1` (centres undefined), the GI50 is 14.7 µM (inactive) in [1]; 19.9 µM (inactive) in [2]; 11.7 µM (inactive) in assay [3]; 26 µM (inactive) in assay [4]; 14.5 µM (inactive) in assay [5]; 16.1 µM (inactive) in assay [6]. Also, the GI50 in assay [7] was 24.9 µM; in assay [8] it was 9.82 µM (inactive); in assay [9], 14.2 µM (inactive); in [10], 10.9 µM (inactive); in [11] it was 16.6 µM (inactive); in assay [12], 16.9 µM (inactive). For the same compound, the GI50 is 28.4 µM (inactive) in [13]; 15.9 µM (inactive) in [14]; 17.9 µM (inactive) in assay [15]; 21.3 µM (inactive) in assay [16]; 26.3 µM (inactive) in [17]; 15 µM (inactive) in assay [18].
Regarding `O=C(CCc1cc(O)cc(O)c1)NCCc1ccc(O)c(O)c1`, the GI50 in [1], in assay [2], in [3], in assay [4], in assay [5] and in assay [6] was > 100 µM (inactive) each time. Further, the GI50 in assay [7] is more than 100 µM; in [9], > 100 µM (inactive); in assay [10], > 10 µM (inactive); in assay [11] it was 36.7 µM (inactive); in assay [12] it was > 100 µM (inactive); in assay [19], > 100 µM (inactive). Besides, the GI50 in assay [13], in assay [14], in [15], in [16], in assay [17] and in assay [18] was > 100 µM (inactive) in each case.
`Nc1nc(Nc2ccc(Cl)cc2)sc1C(=O)c1cc2ccccc2oc1=O`: the GI50 was 19.2 µM (inactive) in [1]; > 100 µM (inactive) in assay [2]; 28 µM (inactive) in assay [3]; 41.9 µM (inactive) in assay [6]; 34.5 µM in [7]; 33 µM (inactive) in assay [8]. Further, the GI50 in [9] is 72.4 µM (inactive); in assay [10], 33.8 µM (inactive); in [11], 37.3 µM (inactive); in assay [12], > 100 µM (inactive); in assay [13] it was 38.5 µM (inactive); in assay [15] it was 46.5 µM (inactive). In addition, the GI50 was 20.7 µM (inactive) in [16], 54.1 µM (inactive) in assay [17] and 69.5 µM (inactive) in assay [18].
As for `O=C1NC(N2CCCC(CO)C2)=N/C1=C\c1ccc(Cl)cc1` (centres undefined), the GI50 in [2] is > 100 µM (inactive); in assay [3], > 100 µM (inactive); in assay [4] it was > 100 µM (inactive); in assay [5], 49.1 µM (inactive); in assay [6], 35.9 µM (inactive); in assay [7], 77.6 µM. The GI50 in [8], in [9], in assay [10], in assay [11], in assay [12] and in [19] was > 100 µM (inactive) each time. Further, the GI50 in assay [13], in assay [14], in assay [15], in assay [16], in assay [17] and in [18] was > 100 µM (inactive) throughout.
For the compound `O=C(O)c1cnc2[nH]ccn2c1=O`, the GI50 in assay [1] is > 100 µM (inactive); in [2], > 100 µM (inactive); in [3] it was > 100 µM (inactive); in assay [5] it was > 100 µM (inactive); in assay [6] it was > 100 µM (inactive); in [7], more than 100 µM. Further, the GI50 in assay [8], in assay [9], in [10], in assay [11], in assay [12] and in assay [13] was > 100 µM (inactive) in each case. The GI50 in assay [14], in [15], in assay [16], in assay [17] and in [18] was > 100 µM (inactive) in each case.
As to `Clc1ccc(-c2nc3ccc4ccccc4c3c3c2CCCC3)cc1`, the GI50 in [1] was > 100 µM (inactive); in assay [3], > 100 µM (inactive); in assay [4] it was > 100 µM (inactive); in assay [5], 30.1 µM (inactive); in assay [6], > 100 µM (inactive); in [7], 62.8 µM. For the same compound, the GI50 in assay [9] was 44.6 µM (inactive); in assay [10], > 100 µM (inactive); in assay [11], > 100 µM (inactive); in assay [12] it was > 100 µM (inactive); in assay [19] it was > 100 µM (inactive); in assay [13] it was > 100 µM (inactive). Moreover, the GI50 in assay [14], in assay [15], in assay [16], in assay [17] and in [18] was > 100 µM (inactive) in each case.
For `Cc1ccc(/C=N/NS(=O)(=O)c2ccc(/C=C3\NC(=O)NC3=O)cc2)cc1`, the GI50 in assay [1] was > 100 µM (inactive); in assay [2], > 100 µM (inactive); in assay [3], > 100 µM (inactive); in assay [4] it was > 100 µM (inactive); in [5] it was 64.9 µM (inactive); in assay [6] it was > 100 µM (inactive). The GI50 is more than 100 µM in assay [7]; > 100 µM (inactive) in [8]; > 100 µM (inactive) in assay [9]; > 100 µM (inactive) in assay [10]; > 100 µM (inactive) in assay [11]; > 100 µM (inactive) in assay [12]. For the same compound, the GI50 in [13] is 75.7 µM (inactive); in assay [14] it was 46.7 µM (inactive); in assay [15], > 100 µM (inactive); in [16] it was > 100 µM (inactive); in [17], > 100 µM (inactive); in [18] it was > 100 µM (inactive).
Consider `Cc1ccc(C)c2c1CC(Cc1ccccc1C(=O)O)C2=O` (centres undefined), for which the GI50 in assay [2] is > 100 µM (inactive); in assay [3], > 100 µM (inactive); in assay [4], > 100 µM (inactive); in assay [5] it was > 100 µM (inactive); in assay [6], > 100 µM (inactive); in assay [7], more than 100 µM. Also, the GI50 in [8], in [9], in assay [10], in assay [11], in assay [12] and in assay [19] was > 100 µM (inactive) throughout. In addition, the GI50 in [13], in assay [14], in assay [15], in assay [16], in assay [17] and in assay [18] was > 100 µM (inactive) each time.

The values are drawn from ChEMBL document CHEMBL1201862, “PubChem BioAssay data set” (2004).
